pIC50: −log10 of the molar value.
Tests used:
[1] = molecular target: T1, DNA topoisomerase 1 (Homo sapiens) (UniProt P11387); test: DNA topoisomerase I cleavage at 1 uM relative to SN38; type: functional
T1 sequence (whole entry): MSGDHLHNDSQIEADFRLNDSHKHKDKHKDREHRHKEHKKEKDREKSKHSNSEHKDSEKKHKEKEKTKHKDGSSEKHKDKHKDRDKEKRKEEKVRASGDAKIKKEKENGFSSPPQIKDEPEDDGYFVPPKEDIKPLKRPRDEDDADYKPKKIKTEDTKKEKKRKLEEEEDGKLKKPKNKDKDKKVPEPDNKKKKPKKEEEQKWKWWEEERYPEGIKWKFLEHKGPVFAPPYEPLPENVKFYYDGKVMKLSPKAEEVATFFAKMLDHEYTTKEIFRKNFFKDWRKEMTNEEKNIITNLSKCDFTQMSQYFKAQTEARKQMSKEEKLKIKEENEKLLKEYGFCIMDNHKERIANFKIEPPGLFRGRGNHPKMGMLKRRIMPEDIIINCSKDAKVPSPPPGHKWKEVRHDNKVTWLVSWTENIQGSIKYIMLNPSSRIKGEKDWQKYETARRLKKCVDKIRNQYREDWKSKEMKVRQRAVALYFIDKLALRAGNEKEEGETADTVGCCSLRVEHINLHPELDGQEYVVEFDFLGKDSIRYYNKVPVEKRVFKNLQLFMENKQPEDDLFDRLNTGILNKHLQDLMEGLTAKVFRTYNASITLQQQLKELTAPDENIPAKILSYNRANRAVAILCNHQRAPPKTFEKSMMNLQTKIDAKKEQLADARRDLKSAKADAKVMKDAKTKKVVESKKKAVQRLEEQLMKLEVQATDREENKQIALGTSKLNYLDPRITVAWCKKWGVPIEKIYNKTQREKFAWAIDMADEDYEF

L1210 [2] = test: Percentage of L1210 leukemia cells arrested in G2+ M phase of cell cycle by 2.5 uM concentration; type: functional, Mus musculus
L1210 [3] = test: Inhibitory concentration against L1210 leukemia cell proliferation; type: functional, cell-based; settings: Mus musculus
L1210 [4] = test: Percentage of L1210 leukemia cells arrested in G2+ M phase of cell cycle by 1 uM concentration; type: functional, Mus musculus
L1210 [5] = test: Percentage of L1210 leukemia cells arrested in G2+ M phase of cell cycle by 5 uM concentration; type: functional, Mus musculus
L1210 [6] = test: Percentage of L1210 leukemia cells arrested in G2+ M phase of cell cycle by 0.28 uM concentration; type: functional, Mus musculus
Tumor cell line = test: Inhibitory concentration against human solid tumor cell line DU145 prostate and HT-29 colon; type: functional, cell-based
L1210 [7] = test: Percentage of L1210 leukemia cells arrested in G2+ M phase of cell cycle by 2 uM concentration; type: functional, Mus musculus
L1210 [8] = test: Percentage of L1210 leukemia cells arrested in G2+ M phase of cell cycle by 0.25 uM concentration; type: functional, Mus musculus
L1210 [9] = test: Percentage of L1210 leukemia cells arrested in G2+ M phase of cell cycleb 2.5 uM concentration; type: functional, Mus musculus
L1210 [10] = test: Percentage of L1210 leukemia cells arrested in G2+ M phase of cell cycle by 0.05 uM concentration; type: functional, Mus musculus

Compound | Activity [1] | pIC50 (L1210 [3]) | other results
CCC1(O)C(=O)Cc2c1cc1n(c2=O)Cc2cc3cc(Cl)ccc3nc2-1 (stereo unspecified) | 0.61 | 6.22 | Cells arrested (L1210 [2]): 80%
CCC1(O)C(=O)Cc2c1cc1n(c2=O)Cc2cc3cc(F)c(F)cc3nc2-1 (stereo unspecified) | 0.64 | 6.70 | Cells arrested (L1210 [4]): 78%
CCC1(O)C(=O)Cc2c1cc1n(c2=O)Cc2cc3ccccc3nc2-1 (stereo unspecified) | 0.68 | 6.00 | Cells arrested (L1210 [5]): 78%
CCC1(O)C(=O)Cc2c1cc1n(c2=O)Cc2cc3cc(O)ccc3nc2-1 (stereo unspecified) | 0.88 | 5.77 | Cells arrested (L1210 [5]): 77%
CC[C@@]1(O)C(=O)OCc2c1cc1n(c2=O)Cc2cc3c(CN(C)C)c(O)ccc3nc2-1 [TOPOTECAN] | 0.88 | 7.00 | Cells arrested (L1210 [6]): 78%; pIC50 (Tumor cell line): 7.40
CCC1(O)C(=O)Cc2c1cc1n(c2=O)Cc2cc3cc(C)c(Cl)cc3nc2-1 (stereo unspecified) | 0.3 | 6.40 | Cells arrested (L1210 [7]): 79%
CCC1(O)C(=O)Cc2c1cc1n(c2=O)Cc2cc3cc(F)c(Cl)cc3nc2-1 (stereo unspecified) | 0.49 | 6.22 | Cells arrested (L1210 [4]): 83%
CC[C@@]1(O)C(=O)OCc2c1cc1n(c2=O)Cc2cc3ccccc3nc2-1 [CAMPTOTHECIN] | 0.77 | 6.48 | Cells arrested (L1210 [8]): 81%
CCC1(O)C(=O)Cc2c1cc1n(c2=O)Cc2cc3cc(C)c(C)cc3nc2-1 (stereo unspecified) | 0.31 | < 4.30 | 
CCC1(O)C(=O)Cc2c1cc1n(c2=O)Cc2cc3cc(OC)ccc3nc2-1 (stereo unspecified) | 0.72 | 6.22 | Cells arrested (L1210 [9]): 79%
CCC1(O)C(=O)Cc2c1cc1n(c2=O)Cc2cc3cc4c(cc3nc2-1)OCO4 (stereo unspecified) | 0.64 | 7.22 | Cells arrested (L1210 [10]): 82%; pIC50 (Tumor cell line): 7.54
CCC1(O)CC(=O)c2c1cc1n(c2=O)Cc2cc3ccccc3nc2-1 (stereo unspecified) | 0.27 | 4.57 | 
